In brackets after ≈: the same amount, converted by molar mass. Entries after “also recorded” stand apart in the source; their conditions may differ.
What was measured:
[1] = system: Japanese encephalitis virus (JEV); assay: Quantitative assay of JEV yields by real-time RT-PCR; assay type: cell-based; details: for Ct (real-time RT-PCR of JEV RNA in supernatant) / ΔCt (Ct experimental − Ct control) / Reduction in virus RNA loads: 10 μg/ml; for Ct (real-time RT-PCR of JEV RNA in supernatant) / ΔCt (Ct experimental − Ct control): JEV MOI 1, BHK-21 cells, 72 h; for Reduction in virus RNA loads: supernatant of infected BHK-21 cells, three days post infection; for inhibition at 10 µg/mL: Japanese encephalitis virus, BHK-21, read-out: Inhibition of JEV yields
Cell viability = assay type: cell-based, baby hamster; details: hamster, BHK-21 cells, CC50, BHK-21 cells, MTT
[2] = system: GAS-driven promoter (pGAS-Luc) in BHK-21 cells; assay: GAS-driven promoter dual-luciferase reporter assay; assay type: cell-based, baby hamster; details: 10 μg/ml, 4 h, versus untreated cells
[3] = system: Japanese encephalitis virus (JEV) strain T1P1; assay: JEV plaque reduction assay in BHK-21 cells; assay type: cell-based; details: JEV 100 pfu, BHK-21 monolayer, plaques after 3 days
BHK-21 cells = assay: Cell viability; assay type: cell-based, baby hamster; details: 72 h, MTT

Structure (SMILES)	Ct (real-time RT-PCR of JEV RNA in supernatant) [1]	ΔCt (Ct experimental − Ct control) [1]	Reduction in virus RNA loads [1]	inhibition at 10 µg/mL [1] [%]	CC50 at 72 h (Cell viability) [µg/mL]	Activity of GAS-driven promoter (relative firefly luciferase) ([2]; listed as aloe emodin)	Activity of GAS-driven promoter (relative firefly luciferase) ([2]; listed as aloe-emodin)	IC50 (JEV plaque reduction) [3] [µg/mL]	Activity of GAS-driven promoter (relative firefly luciferase) [2]	CC50 (BHK-21 cells) [µg/mL]
O=C1c2cccc(O)c2C(=O)c2c(O)cc(CO)cc21 [Aloe-emodin]	32.25	6.72	more than 1 log	90	20.2 ± 1.01 (≈ 74.7 µM)	significantly activated	significantly increased	17.39 ± 0.58 (≈ 64.4 µM)	–	–
Cc1cc(O)c2c(c1)C(=O)c1cccc(O)c1C2=O [Chrysophanol]	29.26	3.73	more than 1 log	90	18.2 ± 5.53 (≈ 71.5 µM)	–	–	15.82 ± 2.62 (≈ 62.2 µM)	significantly activated; also recorded: significantly increased	–
Cc1cc(O)c2c(c1)C(=O)c1cc(O)cc(O)c1C2=O [Emodin]	–	–	–	–	–	–	–	–	–	5.49 ± 1.82 (≈ 20.3 µM)
COc1cc(O)c2c(c1)C(=O)c1cc(C)cc(O)c1C2=O [Physcion]	–	–	–	–	20.7 ± 4.66 (≈ 72.8 µM)	–	–	–	–	–

From PMC7091366 (Archives of Pharmacal Research, 2014)
